According to US5446060A, “Aminoalkyl thienyl ketone derivatives and their use as peripheral vasodilators” (Laboratoire L. Lafon, priority 1990, dated 1995):
Counter-ions that a name gives are not always drawn. Like-named read-outs stand apart in the source and are kept apart here.

Legend:
Solubility in water = type: physicochemical; conditions: for solubility: read-out: solubility in water (concentration)
[1] = Acute toxicity determined orally in mice; conditions: mouse, in vivo; oral, mice (NMRI)
Description: The acute toxicity was determined orally in mice (NMRI).

femoral flow rate = assay: Cardiovascular activity, compounds administered intravenously in anaesthetised dogs (femoral flow rate); type: in vivo; conditions: intravenous; for minimal effective dose: Canis lupus familiaris, read-out: dose at and above which femoral flow rate is significantly increased; for increase in femoral flow rate: 4 mg/kg
From the text: (§1) The activity of the compounds administered intravenously was studied in anaesthetised dogs.

arterial blood pressure = assay: Cardiovascular activity, compounds administered intravenously in anaesthetised dogs (arterial blood pressure); type: in vivo; conditions: intravenous
From the text: as §1

ATP in fresh blood = assay: Effects on ATP in fresh blood measured ex vivo by 31P NMR spectroscopy
Description: The effects of the compounds on the ATP in fresh blood were measured ex vivo by ^31 p NMR spectroscopy.
The results are given in the table below in the form of percentage changes.

[2] = test system: microcirculation of the chamber of the rabbit's ear; assay: Activity with respect to the microcirculation of the chamber of the rabbit's ear; type: in vivo; conditions: 1 mg/kg I.V.
From the text: The activity of the compounds administered intravenously with respect to the microcirculation of the chamber of the rabbit's ear was studied.

O=C(CCCN1CCCCC1)c1cccs1 [Example 2, 4-piperidino-l-(2-thienyl)butanone hydrochloride]
solubility in water (in words) (Solubility in water; hydrochloride): water-soluble | LD50 [1]: 235 ± 35 mg/kg | increase in femoral flow rate compared with buflomedil at 4 mg/kg (femoral flow rate; 2 mg/kg): same intensity as buflomedil at a dose of 4 mg/kg | minimal effective dose (femoral flow rate): ≥ 1 mg/kg | duration of effect on femoral flow rate compared with buflomedil (femoral flow rate): longer-lasting than that of buflomedil | change in arterial blood pressure (arterial blood pressure; 2 mg/kg): without modifying arterial blood pressure

CC1CCCN(CCCC(=O)c2cccs2)C1 (stereo not drawn) [Example 3, 4-(3-methylpiperidino)-1-(2-thienyl)butanone hydrochloride]
solubility (Solubility in water): 200 mg/mL | LD50 [1]: 207 ± 29 mg/kg | percentage change in αATP (ATP in fresh blood): +54.2% | percentage change in βATP (ATP in fresh blood): +54.6% | percentage change in γATP (ATP in fresh blood): +34.7%

COc1cc(OC)c(C(=O)CCCN2CCCC2)c(OC)c1 [buflomedil, reference compound]
increase in femoral flow rate (femoral flow rate): 106% | change in ATP level (ATP in fresh blood): did not reveal any change in ATP level

O=C(CCCN1CCCC1)c1ccsc1 [Example 8, 4-pyrrolidino-1-(3-thienyl)butanone hydrochloride]
solubility in water (in words) (Solubility in water): water-soluble

O=C(CCCN1CCCC1)c1cccs1 [Example 11, 4-pyrrolidino-1-(2-thienyl)butanone 2,4,6-trimethoxybenzoate]
solubility in water (in words) (Solubility in water): soluble in water on heating

O=C(CCCN1CCOCC1)c1cccs1 [Example 4, 4-morpholino-l-(2-thienyl)butanone hydrochloride]
solubility in water (in words) (Solubility in water): water-soluble

CC1CCCN(CCCC(=O)c2ccsc2)C1 (stereo not drawn) [Example 10, 4-(3-methylpiperidino)-1-(3thienyl)butanone hydrochloride]
solubility in water (in words) (Solubility in water): water-soluble

O=C(CCCN1CCCCCC1)c1cccs1 [Example 7, 4-hexamethylenimino-1-(2-thienyl)butanone hydrochloride]
increase in non-terminal arteriolar diameter [2]: significant and long-lasting increase | solubility in water (in words) (Solubility in water): watersoluble | LD50 [1]: 131 ± 15 mg/kg | increase in femoral flow rate (in words) (femoral flow rate; 1.14 mg/kg and above): significant and longlasting increase | minimal effective dose (femoral flow rate): ≥ 1.14 mg/kg | increase in femoral flow rate compared with buflomedil at 4 mg/kg (femoral flow rate; dose of 1.14 mg/kg and above): larger than that observed with buflomedil at a dose of 4 mg/kg

O=C(CCCN1CCCCCC1)c1ccsc1 [Example 9, 4-hexamethylenimino-1-(3-thienyl)butanone hydrochloride]
solubility in water (in words) (Solubility in water): water-soluble

O=C(CCCN1CCCC1)c1cccs1 [Example 1, 4-pyrrolidino-l-(2-thienyl)butanone hydrochloride]
increase in non-terminal arteriolar diameter [2]: significant and long-lasting increase | solubility (Solubility in water): 200 mg/mL | LD50 [1]: 121 ± 10 mg/kg | increase in femoral flow rate (femoral flow rate): 170% | minimal effective dose (femoral flow rate): ≥ 1 mg/kg | percentage change in αATP (ATP in fresh blood): +41.4% | percentage change in βATP (ATP in fresh blood): +31.2% | percentage change in γATP (ATP in fresh blood): +36.7% | change in arterial blood pressure (arterial blood pressure; even at 4 mg/kg): no significant change

O=C(CCCn1ccnc1)c1cccs1 [Example 6, 4-(1-imidazolyl)-1-(2-thienyl)butanone hydrochloride]
solubility in water (in words) (Solubility in water): water-soluble

O=C(CCCN1CCCCC1)c1cccs1 [Example 12, 4-piperidino-1-(2-thienyl)butanone 2,4,6-trimethoxybenzoate]
solubility in water (in words) (Solubility in water): soluble in water on heating

O=C(CCCN1CCCC(CO)C1)c1cccs1 (stereo not drawn) [Example 5, 4-[3-(hydroxymethyl)piperidino]-1-(2-thienyl) butanone hydrochloride]
solubility in water (in words) (Solubility in water): water-soluble
